Reference: publication PMC8948406 (Journal for Immunotherapy of Cancer, 2022)
Read-outs that look alike come from different tables or passages of the source.

Columns and labels:
non-squamous NSCLC = settings: combination with chemotherapy; cited from earlier work
[1] = Dostarlimab serum pharmacokinetics; format: in vivo, human; settings: coadministration of niraparib, carboplatin–paclitaxel, or bevacizumab
[2] = biological target: PD-1 receptors on CD3+ T-cells (Homo sapiens, UniProt Q15116); test: PD-1 receptor occupancy by flow cytometry; format: cell-based; settings: by end of treatment; parts A, B and D
Sequence of PD-1 receptors on CD3+ T-cells (Q15116 25-288): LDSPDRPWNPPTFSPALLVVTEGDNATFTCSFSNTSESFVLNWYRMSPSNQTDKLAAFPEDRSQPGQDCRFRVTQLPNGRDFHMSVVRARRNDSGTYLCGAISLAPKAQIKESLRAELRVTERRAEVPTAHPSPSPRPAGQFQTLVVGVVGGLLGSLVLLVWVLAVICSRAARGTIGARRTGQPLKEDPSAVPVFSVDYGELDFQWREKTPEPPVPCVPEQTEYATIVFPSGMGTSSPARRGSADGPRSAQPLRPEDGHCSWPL

[3] = for Cmax, Clast and tmax versus other part and niraparib monotherapy: first dose
advanced solid tumors = settings: cited from earlier work

Compound: pembrolizumab: anti-PD-1 antibody, given with chemotherapy in the cited trials
- Grade ≥3 neutropenia (non-squamous NSCLC): 15.8%

Compound: dostarlimab: PD-1 inhibitor; IgG4 humanized monoclonal antibody that binds with high affinity to PD-1
- Effect of the combination partners on dostarlimab PK [1]: no observed impact
- Overall mean PD-1 receptor occupancy [2]: 99.0%

Compound: NC(=O)c1cccc2cn(-c3ccc([C@@H]4CCCNC4)cc3)nc12 [niraparib, [3S]-3-[4-[7-(aminocarbonyl)-2H-indazol-2-yl]phenyl] piperidine]
- Cmax lower in part C than in part A ([3]; 200 mg): 47.1%
- Exposures (Cmax and AUClast) versus monotherapy ([3]; 200 mg, part A): comparable to monotherapy
- AUClast higher in part C than in part A ([3]; 300 mg QD): approximately 46%
- AUClast lower than niraparib monotherapy ([3]; 300 mg, part A): 9.6%
- AUClast higher than niraparib monotherapy ([3]; 300 mg, part C): 31.6%
- Cmax, Clast and tmax versus other part and niraparib monotherapy ([3]; 300 mg): consistent across both parts and similar to PK data for niraparib monotherapy
- Cmax, Clast and tmax versus other part and niraparib monotherapy ([3]; 300 mg, listed as Niraparib): consistent in parts A and C
- Variability of niraparib exposure ([3]; regardless of dose and cohort): ~ 50%
- Variability of exposure, monotherapy data (advanced solid tumors): up to 66%
